Tests used:
[1] = test system: GABA-A receptor (Mus musculus); experiment: cells
[2] = target: GABA-A receptor; anion channel; experiment: Displacement of [3H]muscimol from rat brain gamma-aminobutyric-acid GABA-A receptor

| Compound | IC50 [1] [nM] | Ki [2] [nM] |
| --- | --- | --- |
| CSc1c(Cc2c(O)noc2C2CCNCC2)ccc2ccccc12 | 61 | 28 |
| Oc1noc(C2CCNCC2)c1Cc1ccc2ccccc2c1Sc1ccccc1 | 126 | 250 |
| Oc1noc(C2CCNCC2)c1Cc1ccc2c(Br)cccc2c1 | 215 | 80 |
| Oc1noc(C2CCNCC2)c1Cc1ccc2ccccc2c1Br | 42 | 10 |
| Oc1noc(C2CCNCC2)c1Cc1ccc2cccc(Br)c2c1 | 226 | 45 |
| Oc1noc(C2CCNCC2)c1-c1ccc2ccccc2c1 | 141 | 36 |
| Oc1noc(C2CCNCC2)c1Cc1ccc2ccccc2c1Cl | 113 | 16 |
| Oc1noc(C2CCNCC2)c1Cc1ccc2ccccc2c1-c1ccccc1 | 198 | 21 |
| Oc1noc(C2CCNCC2)c1Cc1ccc2ccccc2c1 | 370 |  |
| Oc1noc(C2CCNCC2)c1Cc1ccc2ccccc2c1F | 242 | 19 |
| Oc1noc(C2CCNCC2)c1-c1ccccc1 | 159 | 220 |
| O=c1[nH]oc(C2CCNCC2)c1-c1cccc2ccccc12 | 334 | 820 |
| Oc1noc(C2CCNCC2)c1Cc1ccc2ccc(Br)cc2c1 | 384 | 109 |
| N#Cc1c(Cc2c(O)noc2C2CCNCC2)ccc2ccccc12 | 140 | 28 |
